The compounds below were run on TFEB (assay: TFEB Nuclear Translocation Assay). Settings: read-out: EC50 of TFEB activation.
Assay type: cell-based
In the case of `CC(C)S(=O)(=O)n1ccc(S(=O)(=O)n2nc(N3CCCC4(CC4)C3)c3c(Cl)cccc32)c1` [Compound 139, 3-(5-azaspiro [2.5]octan-5-yl)-4-chloro-1-(1-isopropylsulfonylpyrrol-3-yl) sulfonyl-indazole], the EC50 is reported as ≤ 1000 nM.
`CC(C)S(=O)(=O)c1ccc(S(=O)(=O)n2nc(N3CCC(F)(F)CC34CC4)c3c(Cl)cccc32)cc1` [Compound 53, 4-chloro-3-(7,7-difluoro-4-azaspiro [2.5]octan-4-yl)-1-(4-isopropylsulfonylphenyl) sulfonyl-indazole] was tested, and the EC50 was ≤ 1000 nM.
For `CC(C)S(=O)(=O)c1ccc(S(=O)(=O)n2nc(N3CCN(c4ncccn4)CC34CC4)c3c(Cl)cccc32)cc1` [Compound 65, 4-chloro-1-(4-isopropylsulfonylphenyl) sulfonyl-3-(7-pyrimidin-2-yl-4,7-diazaspiro[2.5]octan-4-yl) indazole], the EC50 was ≤ 1000 nM.
For `CC(C)S(=O)(=O)c1ccc(S(=O)(=O)n2nc(N3CCN(c4ncc(F)cn4)CC34CC4)c3c(F)ccc(F)c32)s1` [Compound 34, 4,7-difluoro-3-(7-(5-fluoropyrimidin-2-yl)-4,7-diazaspiro [2.5]octan-4-yl)-1-((5-(isopropylsulfonyl)thiophen-2-yl)sulfonyl)-1H-indazole], the EC50 was ≤ 1000 nM.
For `O=S(=O)(c1ccc(C2(F)COC2)cc1)n1nc(N2CCN(c3ncc(F)cn3)CC23CC3)c2c(Cl)cccc21` [Compound 89, 4-chloro-1-[4-(3-fluorooxetan-3-yl)phenyl]sulfonyl-3-[7-(5-fluoropyrimidin-2-yl)-4,7-diazaspiro [2.5]octan-4-yl]indazole], the EC50 was ≤ 1000 nM.
`CC(C)S(=O)(=O)n1ccc(S(=O)(=O)n2nc(N3CCN(c4ncc(F)cc4F)CC34CC4)c3c(F)cc(F)cc32)c1` [Compound 159, 3-(7-(3,5-difluoropyridin-2-yl)-4,7-diazaspiro [2.5]octan-4-yl)-4,6-difluoro-1-((1-(isopropylsulfonyl)-1H-pyrrol-3-yl)sulfonyl)-1H-indazole] was tested, and the EC50 was ≤ 1000 nM.
For `O=S(=O)(c1ccn(S(=O)(=O)C2CC2)c1)n1nc(N2CCN(c3ncc(F)cc3F)CC23CC3)c2c(Cl)ccc(F)c21` [Compound 143, 4-chloro-1-((1-(cyclopropylsulfonyl)-1H-pyrrol-3-yl)sulfonyl)-3-(7-(3,5-difluoropyridin-2-yl)-4,7-diazaspiro [2.5]octan-4-yl)-7-fluoro-1H-indazole], the EC50 was ≤ 1000 nM.
For `CC(C)S(=O)(=O)c1ccc(S(=O)(=O)n2nc(N3CCN(c4ccc(F)cn4)CC34CC4)c3c(Cl)cc(F)cc32)s1` [Compound 41, 4-chloro-6-fluoro-3-[7-(5-fluoro-2-pyridyl)-4,7-diazaspiro [2.5]octan-4-yl]-1-[(5-isopropylsulfonyl-2-thienyl)sulfonyl]indazole], the EC50 was ≤ 1000 nM.
With `CC(C)S(=O)(=O)c1ccc(S(=O)(=O)n2nc(N3CCN(c4ncc(F)cc4F)CC34CC4)c3c(F)ccc(F)c32)s1` [Compound 32, 3-[7-(3,5-difluoro-2-pyridyl)-4,7-diazaspiro [2.5]octan-4-yl]-4,7-difluoro-1-[(5-isopropylsulfonyl-2-thienyl)sulfonyl]indazole] the EC50 was ≤ 1000 nM.
In the case of `O=S(=O)(c1ccn(S(=O)(=O)C2CC2)c1)n1nc(N2CCN(c3ncc(Cl)cc3F)CC23CC3)c2c(F)ccc(F)c21` [Compound 146, 3-[7-(5-chloro-3-fluoro-2-pyridyl)-4,7-diazaspiro [2.5]octan-4-yl]-1-(1-cyclopropylsulfonylpyrrol-3-yl) sulfonyl-4,7-difluoro-indazole], the EC50 is reported as ≤ 1000 nM.
`CC(C)(C)S(=O)(=O)n1ccc(S(=O)(=O)n2nc(N3CCN(c4ncc(F)cn4)CC34CC4)c3c(Cl)cc(F)cc32)c1` [Compound 171, 1-((1-(tert-butylsulfonyl)-1H-pyrrol-3-yl)sulfonyl)-4-chloro-6-fluoro-3-(7-(5-fluoropyrimidin-2-yl)-4,7-diazaspiro [2.5]octan-4-yl)-1H-indazole] was tested, and the EC50 was ≤ 1000 nM.
In the case of `O=S(=O)(c1ccc(C(F)(F)F)cc1)n1nc(N2CCN(c3ncc(F)cn3)CC23CC3)c2c(Cl)cccc21` [Compound 113, 4-chloro-3-[7-(5-fluoropyrimidin-2-yl)-4,7-diazaspiro[2.5]octan-4-yl]-1-[4-(trifluoromethyl)phenyl]sulfonyl-indazole], the EC50 is reported as ≤ 1000 nM.
For `CC(C)S(=O)(=O)n1ccc(S(=O)(=O)n2nc(N3CCN(CC(F)(F)F)CC34CC4)c3c(Cl)cc(F)cc32)c1` [Compound 59, 4-chloro-6-fluoro-1-(1-isopropylsulfonylpyrrol-3-yl)sulfonyl-3-[7-(2,2,2-trifluoroethyl)-4,7-diazaspiro[2.5]octan-4-yl]indazole], the EC50 was ≤ 1000 nM.
With `CC(F)(F)c1ccc(S(=O)(=O)n2nc(N3CCN(c4ncc(F)cn4)C[C@@H]3C(F)(F)F)c3c(Cl)cccc32)cc1` (single isomer, unassigned) [Compound 107] the EC50 was ≤ 1000 nM.
Compound `CC(C)S(=O)(=O)c1nc(S(=O)(=O)n2nc(N3CCN(c4ncc(F)cc4F)CC34CC4)c3c(Cl)cc(F)cc32)cs1` [Compound 197, 4-[4-chloro-3-[7-(3,5-difluoro-2-pyridyl)-4,7-diazaspiro [2.5]octan-4-yl]-6-fluoro-indazol-1-yl]sulfonyl-2-isopropylsulfonyl-thiazole] has an EC50 of 1000 to 10000 nM.
For `CCC(F)(F)c1ccc(S(=O)(=O)n2nc(N3CCN(c4ncc(F)cn4)CC34CC4)c3c(Cl)cccc32)cc1` [Compound 102, 4-chloro-1-[4-(1,1-difluoropropyl)phenyl]sulfonyl-3-[7-(5-fluoropyrimidin-2-yl)-4,7-diazaspiro [2.5]octan-4-yl]indazole], the EC50 was ≤ 1000 nM.
For `CC(F)(F)c1ccc(S(=O)(=O)n2nc(N3CCN(c4ncc(F)cn4)C[C@H]3C(C)(C)F)c3c(Cl)cccc32)cc1` [Compound 121, (S)-4-chloro-1-((4-(1,1-difluoroethyl)phenyl)sulfonyl)-3-(2-(2-fluoropropan-2-yl)-4-(5-fluoropyrimidin-2-yl)piperazin-1-yl)-1H-indazole], the EC50 was ≤ 1000 nM.
For `CC(C)S(=O)(=O)c1ccc(S(=O)(=O)n2nc(N3CCC(OC(F)F)CC34CC4)c3c(Cl)cccc32)cc1` (centres unmarked) [Compound 87, 4-chloro-3-[7-(difluoromethoxy)-4-azaspiro [2.5]octan-4-yl]-1-(4-isopropylsulfonylphenyl) sulfonyl-indazole], the EC50 was ≤ 1000 nM.
For `CC(F)(F)c1ncc(S(=O)(=O)n2nc(N3CCN(c4ncc(F)cn4)CC34CC4)c3c(Cl)cccc32)cn1` [Compound 137, 4-chloro-1-[2-(1,1-difluoroethyl)pyrimidin-5-yl]sulfonyl-3-[7-(5-fluoropyrimidin-2-yl)-4,7-diazaspiro [2.5]octan-4-yl]indazole], the EC50 was ≤ 1000 nM.
In the case of `CC(C)S(=O)(=O)n1ccc(S(=O)(=O)n2nc(N3CCN(c4ncc(F)cn4)C[C@H]3C)c3c(Cl)cc(F)cc32)c1` [Compound 178, 4-chloro-6-fluoro-3-[(2R)-4-(5-fluoropyrimidin-2-yl)-2-methyl-piperazin-1-yl]-1-(1-isopropylsulfonylpyrrol-3-yl) sulfonyl-indazole], the EC50 is reported as ≤ 1000 nM.
In the case of `CC(C)S(=O)(=O)c1ccc(S(=O)(=O)n2nc(N3CC=C(Cl)C[C@@H]3C(F)(F)F)c3c(Cl)cccc32)cc1` [Compound 82, 4-chloro-3-[(2R)-4-chloro-2-(trifluoromethyl)-3,6-dihydro-2H-pyridin-1-yl]-1-(4-isopropylsulfonylphenyl)sulfonyl-indazole], the EC50 is reported as ≤ 1000 nM.
`[2H]c1c(S(=O)(=O)n2nc(N3CCN(c4ncc(F)cn4)CC34CC4)c3c(Cl)cc(F)cc32)c([2H])n(S(=O)(=O)C(C)(C)Cl)c1[2H]` [Compound 181, 4-chloro-1-[1-(1-chloro-1-methyl-ethyl)sulfonyl-2,4,5-trideuterio-pyrrol-3-yl]sulfonyl-6-fluoro-3-[7-(5-fluoropyrimidin-2-yl)-4,7-diazaspiro[2.5]octan-4-yl]indazole] was tested, and the EC50 was ≤ 1000 nM.
With `CC(C)S(=O)(=O)n1cnc(S(=O)(=O)n2nc(N3CCN(c4ncc(F)cc4F)CC34CC4)c3c(F)cc(F)cc32)n1` [Compound 200, 3-(7-(3,5-difluoropyridin-2-yl)-4,7-diazaspiro [2.5]octan-4-yl)-4,6-difluoro-1-((1-(isopropylsulfonyl)-1H−1,2,4-triazol-3-yl)sulfonyl)-1H-indazole] the EC50 was ≥ 10000 nM.
In the case of `CC(C)S(=O)(=O)c1ccc(S(=O)(=O)n2nc(N3CCC(F)(F)CC34CC4)c3c(Cl)cccc32)s1` [Compound 12, 4-chloro-3-(7,7-difluoro-4-azaspiro [2.5]octan-4-yl)-1-[(5-isopropylsulfonyl-2-thienyl)sulfonyl]indazole], the EC50 is reported as ≤ 1000 nM.
For `CC(C)S(=O)(=O)c1ccc(S(=O)(=O)n2nc(N3CCN(c4ncc(F)cc4F)CC34CC4)c3c(Cl)cc(F)cc32)cc1` [Compound 27, 4-chloro-3-[7-(3,5-difluoro-2-pyridyl)-4,7-diazaspiro [2.5]octan-4-yl]-6-fluoro-1-(4-isopropylsulfonylphenyl)sulfonyl-indazole], the EC50 was ≤ 1000 nM.
For `O=S(=O)(c1ccc(S(=O)(=O)n2nc(N3CCN(c4ncc(F)cn4)CC34CC4)c3c(Cl)cccc32)cc1)C(F)F` [Compound 114, 4-chloro-1-[4-(difluoromethylsulfonyl)phenyl]sulfonyl-3-[7-(5-fluoropyrimidin-2-yl)-4,7-diazaspiro[2.5]octan-4-yl]indazole], the EC50 was ≤ 1000 nM.
In the case of `CC(C)(C)c1ncc(S(=O)(=O)n2nc(N3CCN(c4ncc(F)cn4)CC34CC4)c3c(Cl)cccc32)cn1` [Compound 100, 1-(2-tert-butylpyrimidin-5-yl) sulfonyl-4-chloro-3-[7-(5-fluoropyrimidin-2-yl)-4,7-diazaspiro [2.5]octan-4-yl]indazole], the EC50 is reported as ≤ 1000 nM.
In the case of `CC(C)S(=O)(=O)n1ccc(S(=O)(=O)n2nc(N3CCN(c4ncc(Cl)cc4F)CC34CC4)c3c(Cl)ccnc32)c1` [Compound 152, 4-chloro-3-[7-(5-chloro-3-fluoro-2-pyridyl)-4,7-diazaspiro [2.5]octan-4-yl]-1-(1-isopropylsulfonylpyrrol-3-yl) sulfonyl-pyrazolo [3,4-b]pyridine], the EC50 is reported as ≤ 1000 nM.
In the case of `CC(C)S(=O)(=O)c1nc(S(=O)(=O)n2nc(N3CCN(c4ncc(F)cc4F)CC34CC4)c3c(F)ccc(F)c32)cs1` [Compound 194, 4-[3-[7-(3,5-difluoro-2-pyridyl)-4,7-diazaspiro [2.5]octan-4-yl]-4,7-difluoro-indazol-1-yl]sulfonyl-2-isopropylsulfonyl-thiazole], the EC50 is reported as 1000 to 10000 nM.
